Measured values taken from patent US7718645B2, “Substituted bicyclolactam compounds” (Pfizer Inc., priority 2007, dated 2010).
Where two headings read alike, the source gives them in different places.

Target: T1, Human full-length diacylglycerol:acylCoA acyltransferase 1 (DGAT-1) (Homo sapiens, UniProt O75907)
T1 construct: Human full-length diacylglycerol:acylCoA acyltransferase 1 (DGAT-1) was expressed in Sf9 insect cells; made in house; host or cells: Sf9 insect cells (baculovirus)
T1 sequence (O75907 1-488): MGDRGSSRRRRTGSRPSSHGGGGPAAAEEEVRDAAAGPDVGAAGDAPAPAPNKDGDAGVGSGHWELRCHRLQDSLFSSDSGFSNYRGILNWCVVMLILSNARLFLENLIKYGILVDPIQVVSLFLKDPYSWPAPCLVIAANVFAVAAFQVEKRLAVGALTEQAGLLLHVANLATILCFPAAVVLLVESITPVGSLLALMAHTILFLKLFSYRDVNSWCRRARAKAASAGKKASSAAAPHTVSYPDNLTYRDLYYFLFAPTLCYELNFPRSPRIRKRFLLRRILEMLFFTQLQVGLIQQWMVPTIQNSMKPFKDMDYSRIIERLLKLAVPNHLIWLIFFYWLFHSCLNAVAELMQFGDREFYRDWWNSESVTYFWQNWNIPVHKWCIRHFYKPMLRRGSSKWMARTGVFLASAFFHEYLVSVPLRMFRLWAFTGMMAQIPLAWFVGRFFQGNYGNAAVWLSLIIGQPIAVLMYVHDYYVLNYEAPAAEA
Test: In vitro assay for DGAT-1 inhibition ([14C]decanoylCoA, Sf9 membrane fraction)
Assay type: biochemical
Experimental: Human full-length diacylglycerol:acylCoA acyltransferase 1 (DGAT-1) was expressed in Sf9 insect cells which are then lysed and a crude membrane fraction (105,000×g pellet) was prepared.
The cells were cultured as follows. Sf9 cells (20 L) were infected with 4 mL of DGAT1 Baculovirus Infected Insect Cells (BIIC) for 72 hours in a Wave Bioreactor System 20/50P (Wave Biotec/GE Healthcare).
Crude DGAT-1 microsomes were prepared as follows. Cell pellets were washed once with ice-cold Dulbecco's phosphate-buffered saline. Cells were collected in tabletop centrifuge (Beckman GS-6KR), 15 minutes, 2000×g, 4° C. Twenty (20) mL of ice-cold Microsome Buffer (MB) was added per 5 g of cell pellet. The suspension was passed through a microfluidizer 3 times (18K psi). The lysate was transferred to centrifuge tubes and centrifuged for 20 minutes at 5000×g (Beckman-Coulter, Inc. Allegra® 64R High-Speed Refrigerated Benchtop Centrifuge, F0650 rotor) at 4° C. The supernatant was transferred to Ultracentrifuge tubes and centrifuged at […] for 1 hr in a Beckman Ti-45 rotor, 4° C. The supernatant fluid was discarded. The pellet was resuspended in 70 mL of MB by sonication. The microsome concentration was determined using Bio-Rad Protein DC Protein Assay. The microsomes were filter sterilized with a 0.22 μm filter. The samples were portioned, flash frozen and stored at −80° C.
Inhibitors in DMSO were pre-incubated with membranes before initiating the DGAT-1 reaction by the addition of decanoylCoA. […] The inhibitors were present at a range of eight concentrations to generate an apparent IC50 for each compound. […] Specifically, the eight concentrations used were 10 μM, 3 μM, 1 μM, 300 nM, 100 nM, 30 nM, 10 nM and 3 nM.
The reactions were allowed to proceed for 1.5 h at room temperature and then terminated by the addition of 10 μl of HCl (0.5 M). Reaction mixtures were neutralized by the addition of 15 μl of tris(hydroxy-methyl)aminomethane (1M, pH 8.0) and then mixed by trituration with 37.5 μl of Microscint™-E (Perkin Elmer).
Where this DGAT-1 inhibition assay was performed on a compound more than once, an inhibition range is also provided for that compound.

[1] = Examples 17-23 table, range of repeated assays, read-out: DGAT-1 IC50 Range
[2] = Examples 17-23 table, read-out: DGAT-1 IC50
[3] = apparent IC50, eight inhibitor concentrations 10 μM to 3 nM, read-out: IC50
[4] = inhibition range where the assay was performed on a compound more than once, read-out: IC50 range
[5] = Examples 24-25 table, range of repeated assays, read-out: DGAT-1 IC50 Range
[6] = Examples 24-25 table, read-out: DGAT-1 IC50

| SMILES | IC50 [3] | IC50 [4] | also measured |
| --- | --- | --- | --- |
| Cc1cc(C2CCC(CC(=O)O)CC2)ccc1N1CCOc2ncnc(N)c2C1=O (stereo not drawn) [Example 23, 2-(4-(4-(4-amino-5-oxo-7,8-dihydropyrimido[5,4-f][1,4]-oxazepin-6(5H)-yl)-3-methylphenyl)cyclohexyl)acetic acid] | – | – | IC50 [1]: 643 to 2270 nM; IC50 [2]: 1410 nM |
| COC(=O)CC1CC=C(c2ccc(N3CCOc4ncnc(N)c4C3=O)cc2)CC1 (racemic) [Example 52, Methyl(+)-{4-[4-(4-Amino-5-oxo-7,8-dihydropyrimido[5,4-f][1,4]oxazepin-6(5H)-yl)phenyl]cyclohex-3-en-1-yl}acetate] | 84.3 nM | – | – |
| Nc1ncnc2c1C(=O)N(c1ccc([C@@H]3CC[C@@H]4[C@@H](CC(=O)O)CC[C@@H]43)cc1)CCO2 (racemic) [Example 55, ±{(1R,3aS,4R,6aR)4-[4-(4-Amino-5-oxo-7,8-dihydropyrimido[5,4-f][1,4]oxazepin-6(5H)-yl)phenyl]octahydropentalen-1-yl}acetic Acid] | < 10 nM | 3 to 27.2 nM | – |
| C[C@@H]1CN(c2ccc(C3CCC(CC#N)CC3)c(F)c2)C(=O)c2c(N)ncnc2O1 (stereo partly drawn) [Example 48, (R)-2-(4-(4-(4-amino-8-methyl-5-oxo-7,8-dihydropyrimido[5,4-f][1,4]oxazepin-6(5H)-yl)-2-fluorophenyl)cyclohexyl)acetonitrile] | 12.9 nM | 4.5 to 22.2 nM | – |
| C[C@@H]1CN(c2ccc(C3CCC(CC(=O)O)CC3)cc2F)C(=O)c2c(N)ncnc2O1 (stereo partly drawn) [Example 22, (R)-2-(4-(4-(4-amino-8-methyl-5-oxo-7,8-dihydropyrimido[5,4-f][1,4]oxazepin-6(5H)-yl)-3-fluorophenyl)cyclohexyl)acetic acid] | – | – | IC50 [1]: 27.9 to 34.5 nM; IC50 [2]: 30 nM |
| CCOC(=O)C[C@H]1CC[C@H](c2ccc(N3CC(C)(C)Oc4ncnc(N)c4C3=O)cc2)CC1 [Example 7, ethyl {trans-4-[4-(4-amino-8,8-dimethyl-5-oxo-7,8-dihydropyrimido[5,4-f][1,4]oxazepin-6(5H)-yl)phenyl]cyclohexyl}acetate] | 183 nM | – | – |
| CS(=O)(=O)NC(=O)C[C@H]1CC[C@H](c2ccc(N3CCOc4ncnc(N)c4C3=O)cc2)CC1 [Example 26, 2-{Trans-4-[4-(4-amino-5-oxo-7,8-dihydropyrimido[5,4-f][1,4]oxazepin-6(5H)-yl)phenyl]cyclohexyl}-N-(methylsulfonyl)acetamide] | 44.5 nM | 34.2 to 75 nM | – |
| Nc1ncnc2c1C(=O)N(c1ccc(C3CCC(CC(=O)O)CC3)c(Cl)c1)CCO2 (stereo not drawn) [Example 18, 2-(4-(4-(4-amino-5-oxo-7,8-dihydropyrimido[5,4-f][1,4]oxazepin-6(5H)-yl)-2-chlorophenyl)cyclohexyl)acetic acid] | – | – | IC50 [1]: 4.4 to 6.9 nM; IC50 [2]: 5.82 nM |
| COC(=O)C[C@H]1CC[C@H](c2ccc(N3CCOc4nc(C)nc(N)c4C3=O)cc2)CC1 [Example 9, methyl {trans-4-[4-(4-amino-2-methyl-5-oxo-7,8-dihydropyrimido[5,4-f][1,4]oxazepin-6(5H)-yl)phenyl]cyclohexyl}acetate] | 239 nM | – | – |
| Nc1ncnc2c1C(=O)N(c1ccc(C3CCC(CC(=O)O)CC3)cc1F)CCO2 (stereo not drawn) [Example 6, 2-(4-(4-(4-amino-5-oxo-7,8-dihydropyrimido[5,4-f][1,4]oxazepin-6(5H)-yl)-3-fluorophenyl)cyclohexyl)acetic Acid] | 55.5 nM | 29.1 to 89.6 nM | – |
| C[C@@H]1CN(c2ccc([C@H]3CC[C@H](CC#N)CC3)cc2)C(=O)c2c(N)ncnc2O1 [Example 47, (Trans-4-{4-[(8R)-4-amino-8-methyl-5-oxo-7,8-dihydropyrimido[5,4-f][1,4]oxazepin-6(5H)-yl]phenyl}cyclohexyl)acetonitrile] | 38.4 nM | 30.1 to 48.1 nM | – |
| C[C@@H]1CN(c2ccc(C3CCC(CC(N)=O)CC3)c(F)c2)C(=O)c2c(N)ncnc2O1 (stereo partly drawn) [Example 28, (R)-2-(4-(4-(4-amino-8-methyl-5-oxo-7,8-dihydropyrimido[5,4-f][1,4]oxazepin-6(5H)-yl)-2-fluorophenyl)cyclohexyl)acetamide] | 11.3 nM | 7.3 to 19.9 nM | – |
| Cc1cc(N2C[C@@H](C)Oc3ncnc(N)c3C2=O)ccc1C1CCC(CC(=O)O)CC1 (stereo partly drawn) [Example 21, (R)-2-(4-(4-(4-amino-8-methyl-5-oxo-7,8-dihydropyrimido[5,4-f][1,4]oxazepin-6(5H)-yl)-2-methylphenyl)cyclohexyl)acetic acid] | – | – | IC50 [1]: 6.1 to 37.4 nM; IC50 [2]: 14.8 nM |
| CCC1CN(c2ccc(C3CCC(CC(=O)O)CC3)cc2)C(=O)c2c(N)ncnc2O1 (stereo not drawn) [Example 13, {4-[4-(4-Amino-8-ethyl-5-oxo-7,8-dihydro-5H-9-oxa-1,3,6-triaza-benzocyclohepten-6-yl)-phenyl]-cyclohexyl}-acetic acid] | 1330 nM | 1070 to 1660 nM | – |
| C[C@@H]1CN(c2ccc([C@H]3CC[C@H](CC(N)=O)CC3)cc2)C(=O)c2c(N)ncnc2O1 [Example 27, (Trans-4-{4-[(8R)-4-amino-8-methyl-5-oxo-7,8-dihydropyrimido[5,4-f][1,4]oxazepin-6(5H)-yl]phenyl}cyclohexyl)acetamide] | 52.2 nM | 11.4 to 68.1 nM | – |
| Nc1ncnc2c1C(=O)N(c1ccc(C3CCC(C(=O)O)CC3)cc1)CCO2 (stereo not drawn) [Example 49, 4-[4-(4-Amino-5-oxo-7,8-dihydro-5H-9-oxa-1,3,6-triaza-benzocyclohepten-6-yl)-phenyl]-cyclohexanecarboxylic Acid] | 7.8 nM | 5.8 to 10.5 nM | – |
| Nc1ncnc2c1C(=O)N(c1ccc(C3CCC(CC(=O)O)CC3)c(F)c1)CCO2 (stereo not drawn) [Example 19, 2-(4-(4-(4-amino-5-oxo-7,8-dihydropyrimido[5,4-f][1,4]oxazepin-6(5H)-yl)-2-fluorophenyl)cyclohexyl)acetic acid] | – | – | IC50 [1]: 3 to 15.5 nM; IC50 [2]: < 8.26 nM |
| Cc1cc(N2CCOc3ncnc(N)c3C2=O)ccc1C1CCC(CC(=O)O)CC1 (stereo not drawn) [Example 20, 2-(4-(4-(4-amino-5-oxo-7,8-dihydropyrimido[5,4-f][1,4]oxazepin-6(5H)-yl)-2-methylphenyl)cyclohexyl)acetic acid] | – | – | IC50 [1]: 8.6 to 17.2 nM; IC50 [2]: 13 nM |
| C[C@@H]1CN(c2ccc([C@H]3CC[C@H](CC(=O)O)CC3)c(F)c2)C(=O)c2c(N)ncnc2O1 [Example 25, (trans-4-{4-[(8R)-4-amino-8-methyl-5-oxo-7,8-dihydropyrimido[5,4-f][1,4]oxazepin-6(5H)-yl]-2-fluorophenyl}cyclohexyl)acetic acid] | – | – | IC50 [5]: 10 to 17 nM; IC50 [6]: 12.3 nM |
| Nc1ncnc2c1C(=O)N(c1ccc([C@H]3C[C@H]4C[C@@H]3C3C(C(=O)O)C34)cc1)CCO2 (mixture of isomers) [Example 57, (±)-(1R,5R,6S)-6-[4-(4-Amino-5-oxo-7,8-dihydropyrimido[5,4-f][1,4]oxazepin-6(5H)-yl)phenyl]tricyclo[3.2.1.0˜2.4˜]octane-3-carboxylic Acid] | 34.7 nM | 26.7 to 58.6 nM | – |
| C[C@@H]1CN(c2ccc([C@H]3CC[C@@H](CC(=O)O)CC3)c(F)c2)C(=O)c2c(N)ncnc2O1 [Example 24, (cis-4-{4-[(8R)-4-amino-8-methyl-5-oxo-7,8-dihydropyrimido[5,4-f][1,4]oxazepin-6(5H)-yl]-2-fluorophenyl}cyclohexyl)acetic acid] | – | – | IC50 [5]: 1.7 to 13.2 nM; IC50 [6]: 4.6 nM |
| C[C@H]1COc2ncnc(N)c2C(=O)N1c1ccc([C@H]2CC[C@H](CC(=O)O)CC2)cc1 [Example 5] | 33.9 nM | – | – |
| CC1COc2ncnc(N)c2C(=O)N1c1ccc(C2CCC(CC(=O)O)CC2)cc1 (stereo not drawn) [Example 15, {4-[4-(4-Amino-7-methyl-5-oxo-7,8-dihydro-5H-9-oxa-1,3,6-triaza-benzocyclohepten-6-yl)-phenyl]-cyclohexyl}-acetic acid] | 27.3 nM | 13.6 to 77.9 nM | – |
